Several values for one entry are separate records, joined by “and”; a condition that tells them apart may be missing. Equal entries are not always repeated. Results filed as inconclusive are left out.
Test system: BDF1 mice, colon carcinoma 38 sc, T/C %
Assay: NCI In Vivo Anticancer Drug Screen. Data for tumor model Colon Carcinoma 38 (subcutaneous) in B6D2F1 (BDF1) mice
Method in brief: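 Ratio of survival or tumor size, compound-treated animals relative to vehicle controls, in tumor-bearing mice.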

[1] = endpoint: median tumor weight (est.), dose: 6.25 mg/kg/injection, schedule: Q07DX002 (ip), vehicle: saline, higher = larger tumour
[2] = endpoint: median tumor weight (est.), dose: 12.5 mg/kg/injection, schedule: Q07DX002 (ip), vehicle: saline, higher = larger tumour
[3] = endpoint: median tumor weight (est.), dose: 25.0 mg/kg/injection, schedule: Q07DX002 (ip), vehicle: saline, higher = larger tumour
[4] = endpoint: median tumor weight (est.), dose: 50.0 mg/kg/injection, schedule: Q07DX002 (ip), vehicle: saline, higher = larger tumour
[5] = endpoint: median tumor weight (est.), dose: 100.0 mg/kg/injection, schedule: Q07DX002 (ip), vehicle: saline, higher = larger tumour
[6] = endpoint: median tumor weight (est.), dose: 12.5 mg/kg/injection, schedule: Q07DX002 (ip), vehicle: Klucel (hydroxypropylcellulose) (HPC), higher = larger tumour
[7] = endpoint: median tumor weight (est.), dose: 50.0 mg/kg/injection, schedule: Q07DX002 (ip), vehicle: Klucel (hydroxypropylcellulose) (HPC), higher = larger tumour
[8] = endpoint: median tumor weight (est.), dose: 100.0 mg/kg/injection, schedule: Q07DX002 (ip), vehicle: Klucel (hydroxypropylcellulose) (HPC), higher = larger tumour
[9] = endpoint: median tumor weight (est.), dose: 25.0 mg/kg/injection, schedule: Q07DX002 (ip), vehicle: Klucel (hydroxypropylcellulose) (HPC), higher = larger tumour

**Q.** How did the T/C [1] turn out when C=C1C(=O)OC2CC(C)C3C4OC4C(O)C3(C)C(O)C12 (configuration not stated) was run?
**A.** 115 % of control

**Q.** What about the T/C [2] of the same compound?
**A.** 118 % of control

**Q.** What about the T/C [3] of the same compound?
**A.** 116 % of control

**Q.** And the T/C [4]?
**A.** 80 % of control

**Q.** What about the T/C [5] of the same compound?
**A.** 155 % of control

**Q.** Which T/C [6] does the source give for O=C(Nc1ccc(N=C=S)cc1Cl)c1cc(Cl)cc(Cl)c1O here?
**A.** 64 % of control and 65 % of control

**Q.** What about the T/C [7] of the same compound?
**A.** 80 % of control and 87 % of control

**Q.** And the T/C [8]?
**A.** 79 % of control

**Q.** What does the source list for NC(=S)N/N=C/c1ccc(OC(=O)COc2ccccc2)cn1?
**A.** T/C (endpoint: median tumor weight (est.), dose: 25.0 mg/kg/injection, schedule: Q07DX002 (ip), vehicle: saline with Tween-80, higher = larger tumour): 88 % of control; T/C (endpoint: median tumor weight (est.), dose: 50.0 mg/kg/injection, schedule: Q07DX002 (ip), vehicle: saline with Tween-80, higher = larger tumour): 88 % of control; T/C (endpoint: median tumor weight (est.), dose: 100.0 mg/kg/injection, schedule: Q07DX002 (ip), vehicle: saline with Tween-80, higher = larger tumour): 55 % of control; T/C (endpoint: median tumor weight (est.), dose: 200.0 mg/kg/injection, schedule: Q07DX002 (ip), vehicle: saline with Tween-80, higher = larger tumour): 72 % of control; T/C (endpoint: median tumor weight (est.), dose: 400.0 mg/kg/injection, schedule: Q07DX002 (ip), vehicle: saline with Tween-80, higher = larger tumour): 57 % of control

**Q.** For O=[N+]([O-])/C=C\c1ccc2c(c1)OCO2, which T/C [6] is on record?
**A.** 364 % of control

**Q.** What about the T/C [9] of the same compound?
**A.** 364 % of control

**Q.** What about the T/C (endpoint: median tumor weight (est.), dose: 25.0 mg/kg/injection, schedule: Q07DX003 (ip), vehicle: Klucel (hydroxypropylcellulose) (HPC), higher = larger tumour) of the same compound?
**A.** 64 % of control and 71 % of control

**Q.** What about the T/C [7] of the same compound?
**A.** 185 % of control

**Q.** What about the T/C [8] of the same compound?
**A.** 93 % of control

**Q.** What about the T/C (endpoint: median tumor weight (est.), dose: 100.0 mg/kg/injection, schedule: Q07DX003 (ip), vehicle: Klucel (hydroxypropylcellulose) (HPC), higher = larger tumour) of the same compound?
**A.** 88 % of control and 92 % of control

**Q.** What about the T/C (endpoint: median tumor weight (est.), dose: 200.0 mg/kg/injection, schedule: Q07DX002 (ip), vehicle: Klucel (hydroxypropylcellulose) (HPC), higher = larger tumour) of the same compound?
**A.** 77 % of control

**Q.** What about the T/C (endpoint: median tumor weight (est.), dose: 200.0 mg/kg/injection, schedule: Q07DX003 (ip), vehicle: Klucel (hydroxypropylcellulose) (HPC), higher = larger tumour) of the same compound?
**A.** 56 % of control

**Q.** What about the T/C (endpoint: median tumor weight (est.), dose: 400.0 mg/kg/injection, schedule: Q07DX002 (ip), vehicle: Klucel (hydroxypropylcellulose) (HPC), higher = larger tumour) of the same compound?
**A.** 102 % of control

**Q.** For CC1(C)CC23C4COC(=O)C2CCC1C3CC4=O (configuration not stated), which T/C (endpoint: median tumor weight (est.), dose: 6.25 mg/kg/injection, schedule: Q07DX002 (ip), vehicle: DMSO, higher = larger tumour) is on record?
**A.** 116 % of control and 101 % of control

**Q.** What about the T/C (endpoint: median tumor weight (est.), dose: 25.0 mg/kg/injection, schedule: Q07DX002 (ip), vehicle: DMSO, higher = larger tumour) of the same compound?
**A.** 81 % of control and 92 % of control

**Q.** And the T/C (endpoint: median tumor weight (est.), dose: 50.0 mg/kg/injection, schedule: Q07DX002 (ip), vehicle: DMSO, higher = larger tumour)?
**A.** 121 % of control and 105 % of control

**Q.** What about the T/C (endpoint: median tumor weight (est.), dose: 200.0 mg/kg/injection, schedule: Q07DX002 (ip), vehicle: DMSO, higher = larger tumour) of the same compound?
**A.** 103 % of control

**Q.** What does the source list for O=C1N[C@@H]([C@H]2CC[C@H](Cl)CN2)C(=O)N[C@H]1[C@H]1CC[C@H](Cl)CN1?
**A.** T/C (endpoint: median tumor weight (est.), dose: 0.31 mg/kg/injection, schedule: Q07DX003 (ip), vehicle: water, higher = larger tumour): 85 % of control; T/C (endpoint: median tumor weight (est.), dose: 0.63 mg/kg/injection, schedule: Q07DX003 (ip), vehicle: water, higher = larger tumour): 110 % of control; T/C (endpoint: median tumor weight (est.), dose: 1.25 mg/kg/injection, schedule: Q07DX003 (ip), vehicle: water, higher = larger tumour): 79 % of control; T/C (endpoint: median tumor weight (est.), dose: 2.5 mg/kg/injection, schedule: Q07DX003 (ip), vehicle: water, higher = larger tumour): 70 % of control; T/C (endpoint: median tumor weight (est.), dose: 5.0 mg/kg/injection, schedule: Q07DX003 (ip), vehicle: water, higher = larger tumour): 6 % of control

**Q.** With O=c1[nH]cnc2c1ncn2C1OC(CO)C(O)C1O (configuration not stated) as the compound, how does the T/C (endpoint: median survival time, dose: 250.0 mg/kg/injection, schedule: Q04DX004 (ip), vehicle: saline with Tween-80, higher = longer survival) read?
**A.** 108 % of control

**Q.** What about the T/C (endpoint: median survival time, dose: 250.0 mg/kg/injection, schedule: Q04DX004 (ip), vehicle: saline, higher = longer survival) of the same compound?
**A.** 107 % of control

**Q.** What about the T/C (endpoint: median survival time, dose: 500.0 mg/kg/injection, schedule: Q04DX004 (ip), vehicle: saline with Tween-80, higher = longer survival) of the same compound?
**A.** 121 % of control

**Q.** And the T/C (endpoint: median survival time, dose: 500.0 mg/kg/injection, schedule: Q04DX004 (ip), vehicle: saline, higher = longer survival)?
**A.** 120 % of control

**Q.** And the T/C (endpoint: median survival time, dose: 1000.0 mg/kg/injection, schedule: Q04DX004 (ip), vehicle: saline with Tween-80, higher = longer survival)?
**A.** 60 % of control

**Q.** What about the T/C (endpoint: median survival time, dose: 1000.0 mg/kg/injection, schedule: Q04DX004 (ip), vehicle: saline, higher = longer survival) of the same compound?
**A.** 58 % of control

**Q.** How did the T/C [3] turn out when CCCC(=O)Nc1ncnc2c1ncn2C1OC2COP(=O)(O)OC2C1OC(=O)CCC (configuration not stated) was run?
**A.** 84 % of control and 103 % of control

**Q.** And the T/C [5]?
**A.** 101 % of control and 106 % of control

**Q.** And the T/C (endpoint: median tumor weight (est.), dose: 800.0 mg/kg/injection, schedule: Q07DX002 (ip), vehicle: saline, higher = larger tumour)?
**A.** 75 % of control and 96 % of control

**Q.** With CCCCCC[Se][Se]CCCCCC as the compound, how does the T/C (endpoint: median tumor weight (est.), dose: 3.12 mg/kg/injection, schedule: Q07DX002 (ip), vehicle: Klucel (hydroxypropylcellulose) (HPC), higher = larger tumour) read?
**A.** 100 % of control

**Q.** What about the T/C [9] of the same compound?
**A.** 95 % of control

**Q.** For O=NNc1ccccn1, which T/C (endpoint: median tumor weight (est.), dose: 1.56 mg/kg/injection, schedule: Q07DX002 (ip), vehicle: saline, higher = larger tumour) is on record?
**A.** 98 % of control

**Q.** What about the T/C (endpoint: median tumor weight (est.), dose: 3.12 mg/kg/injection, schedule: Q07DX002 (ip), vehicle: saline, higher = larger tumour) of the same compound?
**A.** 85 % of control and 96 % of control

**Q.** What about the T/C [1] of the same compound?
**A.** 110 % of control

**Q.** And the T/C [2]?
**A.** 120 % of control and 106 % of control

**Q.** And the T/C [4]?
**A.** 95 % of control
